Measurements reported in article PMC2150373, “Phase I study of the mitomycin C analogue BMS-181174” (British Journal of Cancer, 1998).
Like-named read-outs stand apart in the source and are kept apart here.

Key:
ferrets = conditions: ref Bradner et al, 1990; cited from earlier work
[1] = test system: histologically proven advanced cancer
Description: (§1) In a phase I study of 82 patients with confirmed malignancy, we administered BMS-181174 at doses of 0.8-75 mg m-2 by intravenous injection every 28 days. At least three patients were evaluated at each dose level, and 174 courses were administered. […] BMS- 181174, also known as BMY-25067, is a semi-synthetic analogue of MMC created by substitution of the […] amino group by a nitrophenyl disulphide moiety (Figure 1). […] It is not known what form of BMS-181174 enters cells. However, it is possible that, after systemic administration, several forms of the drug in addition to the parent compound may be present, including mixed disulphides with endogenous thiols (such as cysteine, glutathione and methionine), methylated TEMMC and TEMMC disulphide. […] The anti-tumour effects of BMS-1 81174 have been evaluated in vivo (Bradner et al, 1990). […] The selection of the starting dose for the clinical study was based on the toxic low dose (TLD) in the dog.

[2] = test system: patients with histologically proven advanced cancer
Description: as §1

mice [3] = conditions: single intravenous dose, ref Nicaise and Usakewicz, 1989; cited from earlier work
[4] = test system: MMC-resistant tumour cell lines; conditions: in vitro, ref Rockwell et al, 1995, cited from earlier work
[5] = test system: subline of L1210 partly resistant to MMC; conditions: ref Bradner et al, 1990; cited from earlier work
[6] = test system: patients with solid tumors; conditions: similar doses given by 6-h infusion; ref Planting et al, 1994; cited from earlier work
mice [7] = conditions: respective maximum non-lethal doses in mice; ref Bradner et al, 1990; cited from earlier work
[8] = Pharmacokinetics of total TEMMC in plasma (HPLC, non-compartmental)
Description: as §1

B 16 melanoma = conditions: drug and tumour both intraperitoneal, or i.v. against subcutaneous tumour; ref Bradner et al, 1990; cited from earlier work
[9] = test system: highly MMC-resistant P388; conditions: ref Bradner et al, 1990; cited from earlier work
[10] = preliminary in vitro studies; presumably disulphide exchange with thiols; cited from earlier work
mice, rats and dogs = conditions: cited from earlier work
rats = conditions: of three species tested (mice, rats and dogs) in rats only; ref Bregman et al, 1989; cited from earlier work
dog = conditions: ref Nicaise and Usakewicz, 1989; cited from earlier work
patients = conditions: clinical use of MMC, Rabadi et al, 1982, cited from earlier work
[11] = 65 mg m-2, 12 patients all pretreated with chemotherapy
[12] = 75 mg m-2, 14 patients with no prior chemotherapy
[13] = 75 mg m-2, six previously treated patients

SMILES: CO[C@@]12[C@H](COC(N)=O)C3=C(C(=O)C(C)=C(NCCSSc4ccc([N+](=O)[O-])cc4)C3=O)N1C[C@@H]1N[C@@H]12 [BMS-181174, N-7[2-(4-nitrophenyldithio)ethyl] mitomycin C]
- neutropenia and thrombocytopenia compared with MMC (ferrets): less neutropenic and much less thrombocytopenic
- partial response rate ([1]; 3 out of 32 patients treated at 65-75 mg m-2): 9%
- treatment discontinued for progressive disease ([1]; 22 out of 32 patients at 65-75 mg m-2): 69%
- treatment discontinued because of progressive disease ([1]; 44 of 50 patients treated at 0.8-50 mg m-2): 88%
- partial response rate ([1]; 50 patients treated at 0.8-50 mg m-2): 2%
- minor response (MR), no. of patients ([1]; Total, 82 patients): 1
- partial response (PR), no. of patients ([1]; Total, 82 patients): 4
- stable disease (SD), no. of patients ([1]; Total, 82 patients): 8
- progressive disease (PD), no. of patients ([1]; Total, 82 patients (10 not evaluable)): 59
- overall response rate ([1]; all dose levels (discussion)): 6%
- partial response rate ([1]; overall, 4 out of 82 patients, 0.8-75 mg m-2): 5%
- Thrombophlebitis, worst grade 0, no. of patients ([2]; 65.0 mg m-2, 12 patients): 7
- Thrombophlebitis, worst grade 1, no. of patients ([2]; 65.0 mg m-2, 12 patients): 0
- Thrombophlebitis, worst grade 2, no. of patients ([2]; 65.0 mg m-2, 12 patients): 4
- Thrombophlebitis, worst grade 3, no. of patients ([2]; 65.0 mg m-2, 12 patients): 1
- Thrombophlebitis, worst grade 4, no. of patients ([2]; 65.0 mg m-2, 12 patients): 1
- grade 4 anaemia, incidence [2, 11]: 8%
- grade 4 thrombocytopenia, incidence [2, 11]: 17%
- grade 3-4 anaemia, incidence [2, 12]: 7%
- grade 3-4 neutropenia, incidence [2, 12]: 7%
- grade 3-4 thrombocytopenia, incidence [2, 12]: 21%
- patients with grade 4 thrombocytopenia (total) ([2]; 75 mg m-2, 20 patients): eight
- Thrombophlebitis, worst grade 0, no. of patients ([2]; 75.0 mg m-2, 20 patients): 12
- Thrombophlebitis, worst grade 1, no. of patients ([2]; 75.0 mg m-2, 20 patients): 0
- Thrombophlebitis, worst grade 2, no. of patients ([2]; 75.0 mg m-2, 20 patients): 3
- Thrombophlebitis, worst grade 3, no. of patients ([2]; 75.0 mg m-2, 20 patients): 3
- Thrombophlebitis, worst grade 4, no. of patients ([2]; 75.0 mg m-2, 20 patients): 2
- grade 3-4 anaemia, patients [2, 13]: none
- grade 3-4 neutropenia, incidence [2, 13]: 33%
- grade 3-4 thrombocytopenia, incidence [2, 13]: 83%
- thrombophlebitis, incidence ([2]; 31 patients treated at 7.5-50 mg m-2, generally grade 1-2): 26%
- thrombophlebitis of grade 3-4, incidence ([2]; 32 evaluable patients treated at 65-75 mg m-2): 22%
- treatment discontinued because of toxicity ([2]; 32 patients at 65-75 mg m-2): 53%
- significant reduction in LVEF, incidence ([2]; 62 evaluable patients, all dose levels): 15%
- patients who died suddenly with pneumonia/pneumonitis thought drug-related ([2]; 65-75 mg m-2): Three
- median nadir times for neutropenia ([2]; 65-75 mg m-2 (discussion)): 15 to 19 days
- nadirs for thrombocytopenia (median time) ([2]; 65-75 mg m-2 (discussion)): 16 to 24 days
- Haemoglobin, worst WHO grade 1, no. of patients ([2]; 75-T, 6 patients): 2
- Haemoglobin, worst WHO grade 2, no. of patients ([2]; 75-T, 6 patients): 4
- Haemoglobin, worst WHO grade 3, no. of patients ([2]; 75-T, 6 patients): 0
- Haemoglobin, worst WHO grade 4, no. of patients ([2]; 75-T, 6 patients): 0
- Neutrophils, worst WHO grade 0, no. of patients ([2]; 75-T, 6 patients): 1
- Neutrophils, worst WHO grade 1, no. of patients ([2]; 75-T, 6 patients): 1
- Neutrophils, worst WHO grade 2, no. of patients ([2]; 75-T, 6 patients): 2
- Neutrophils, worst WHO grade 3, no. of patients ([2]; 75-T, 6 patients): 2
- Neutrophils, worst WHO grade 4, no. of patients ([2]; 75-T, 6 patients): 0
- Platelets, worst WHO grade 0, no. of patients ([2]; 75-T, 6 patients): 1
- Platelets, worst WHO grade 1, no. of patients ([2]; 75-T, 6 patients): 0
- Platelets, worst WHO grade 2, no. of patients ([2]; 75-T, 6 patients): 0
- Platelets, worst WHO grade 3, no. of patients ([2]; 75-T, 6 patients): 2
- Platelets, worst WHO grade 4, no. of patients ([2]; 75-T, 6 patients): 3
- Haemoglobin, worst WHO grade 0, no. of patients ([2]; 75-T: 75 mg m-2, prior chemotherapy, 6 patients): 0
- Haemoglobin, worst WHO grade 1, no. of patients ([2]; 75-U, 14 patients): 3
- Haemoglobin, worst WHO grade 2, no. of patients ([2]; 75-U, 14 patients): 7
- Haemoglobin, worst WHO grade 3, no. of patients ([2]; 75-U, 14 patients): 1
- Haemoglobin, worst WHO grade 4, no. of patients ([2]; 75-U, 14 patients): 0
- Neutrophils, worst WHO grade 0, no. of patients ([2]; 75-U, 14 patients): 10
- Neutrophils, worst WHO grade 1, no. of patients ([2]; 75-U, 14 patients): 1
- Neutrophils, worst WHO grade 2, no. of patients ([2]; 75-U, 14 patients): 2
- Neutrophils, worst WHO grade 3, no. of patients ([2]; 75-U, 14 patients): 0
- Neutrophils, worst WHO grade 4, no. of patients ([2]; 75-U, 14 patients): 1
- Platelets, worst WHO grade 0, no. of patients ([2]; 75-U, 14 patients): 7
- Platelets, worst WHO grade 1, no. of patients ([2]; 75-U, 14 patients): 1
- Platelets, worst WHO grade 2, no. of patients ([2]; 75-U, 14 patients): 3
- Platelets, worst WHO grade 3, no. of patients ([2]; 75-U, 14 patients): 0
- Platelets, worst WHO grade 4, no. of patients ([2]; 75-U, 14 patients): 3
- Haemoglobin, worst WHO grade 0, no. of patients ([2]; 75-U: 75 mg m-2, previously untreated, 14 patients): 3
- possible renal toxicity (rise in serum creatinine), incidence ([2]; 82 patients, all dose levels): 4%
- possible treatment-related deaths ([2]; 82 patients, all dose levels): four
- grade 1-2 nausea, number of patients ([2]; 82 patients, with prophylactic antiemetics): 21
- moderate or severe emesis (grade 2-3), number of patients ([2]; 82 patients, thirteen of them treated at 65-75 mg m-2): fifteen
- time for platelet counts to recover to normal, median ([2]; after 65 mg m-2, range 21-45 days): 25 days
- time for granulocyte counts to recover to normal, median ([2]; after 65 mg m-2, range 27-42 days): 34.5 days
- time for granulocyte counts to recover to normal, median ([2]; after 75 mg m-2, range 19-43): 22.5 days
- time for platelet counts to recover to normal, median ([2]; after 75 mg m-2, range 20-46): 29.5 days
- time to nadir blood counts, median ([2]; all dose levels): 15 to 22 days
- maximum-tolerated dose ([2]; chemotherapy-naive patients, i.v. every 28 days): 75 mg m-2
- Significant reduction in LVEF, no. of patients ([2]; dose 0.8 mg m-2, 4 patients (3 not evaluable)): 0
- Significant reduction in LVEF, no. of patients ([2]; dose 1.6 mg m-2, 3 patients (1 not evaluable)): 1
- Significant reduction in LVEF, no. of patients ([2]; dose 3.2 mg m-2, 7 patients (0 not evaluable)): 2
- Significant reduction in LVEF, no. of patients ([2]; dose 5.0 mg m-2, 5 patients (1 not evaluable)): 1
- Significant reduction in LVEF, no. of patients ([2]; dose 7.5 mg m-2, 5 patients (0 not evaluable)): 0
- Significant reduction in LVEF, no. of patients ([2]; dose 11.5 mg m-2, 7 patients (2 not evaluable)): 0
- Significant reduction in LVEF, no. of patients ([2]; dose 19 mg m-2, 8 patients (3 not evaluable)): 0
- Significant reduction in LVEF, no. of patients ([2]; dose 32 mg m-2, 5 patients (1 not evaluable)): 1
- Significant reduction in LVEF, no. of patients ([2]; dose 50 mg m-2, 6 patients (2 not evaluable)): 1
- Significant reduction in LVEF, no. of patients ([2]; dose 65 mg m-2, 12 patients (3 not evaluable)): 0
- Significant reduction in LVEF, no. of patients ([2]; dose 75 mg m-2, 20 patients (4 not evaluable)): 3
- thrombophlebitis of grades 1-3, incidence ([2]; dose levels 0.8-19 mg m-2, bolus injection): 13%
- dose-limiting toxicity ([2]; i.v. every 28 days): myelosuppression
- maximum-tolerated dose ([2]; previously treated patients, i.v. every 28 days): 65 mg m-2
- significant reduction in LVEF, incidence ([2]; sixteen evaluable patients at 75 mg m-2): 19%
- haematological toxicity (grade >3) ([2]; up to 50 mg m-2): no significant
- LD10 (mice [3]): 24.9 mg m-2
- toxicity in hypoxic versus aerobic conditions ([4]; unlike MMC): not more toxic in hypoxic than aerobic conditions
- activity against MMC-resistant tumour cell lines [4]: active
- anti-tumour activity [5]: slight activity
- toxicity of 6-h infusion [6]: local venous toxicity with thrombophlebitis and venospasm
- neutropenia compared with MMC (mice [7]): less neutropenia than MMC
- plasma levels of TEMMC ([8]; 0.8 and 1.6 mg m-2 dose levels, assay lower limit of quantitation 50 ng ml-1): not sufficiently sensitive to quantify plasma levels
- dose linearity of pharmacokinetics ([8]; in vivo): dose linear
- anti-tumour activity compared with MMC (B 16 melanoma): superior activity
- anti-tumour activity [9]: inactive
- disappearance in plasma [10]: rapidly
- preclinical toxicity (mice, rats and dogs; preclinical testing of MMC analogues, ref Bregman et al, 1989): myelosuppression and proteinuria
- myelosuppression compared with parent compound MMC (mice, rats and dogs; preclinical, ref Doyle and Vyas, 1990): marginally less myelosuppressive than the parent compound
- cardiotoxicity (rats): dose-related cardiotoxicity
- toxic low dose (TLD) (dog): 2.5 mg m-2

SMILES: CO[C@@]12[C@H](COC(N)=O)C3=C(C(=O)C(C)=C(N)C3=O)N1C[C@@H]1N[C@@H]12 [MMC, Mitomycin C]
- patients with a rise in serum creatinine (patients; ref Martino et al, 1979, Ratanatharathom et al): 2%
- dose-limiting toxicity (patients; ref Carter and Crooke, 1979): myelosuppression
